In assay [1] the test system is STZ mice. Nature of the assay: Blood glucose in STZ mouse pancreatic islet β-cell injury model (Example 3). Format: in vivo. As to conditions: STZ ICR mice; single agent 0.1 g/kg per day by gavage, two weeks; 1 h after last administration; mean ± SD. From the text:
Effects of limonoid compound, acarbose or combination thereof on blood glucose in mouse pancreatic islet (β-cell injury model In this example, a mouse pancreatic islet (β-cell injury model was established by modeling ICR mice with streptozotocin (STZ) (Li Nan et al., Protective effect of pine pollen on kidney damage in diabetic nephropathy mice, Science and Technology Review, 2014, 32 (4/5): 95-99), and used to complete the evaluation of hypoglycemic effect in animals (this model could simulate pancreatic islet (β-cell damage state of type I and type II diabetics). The limonoid compound was selected from the group consisting of […], and […] glycoside, and acarbose single administration group, […] single administration group, […] single administration group, […] glycoside singe administration group, and respective combination thereof with acarbose administration groups were set. Conditions of experimental feeding: ICR mice (20±2 g), aged 6 weeks, purchased from Zhejiang Academy of Medical Sciences, and subjected to experimental feeding after 7 days of preliminary feeding. […] The data were expressed as mean and standard deviation. The data before and after were analyzed by t-test, and P<0.05 was considered statistically significant.

The test system of assay [2] is db/db mice. Nature of the assay: Blood glucose in mouse type II diabetes model, db/db mice (Example 2). It is filed as in vivo. The note with it: single agent 0.04 g/kg per day by gavage, two weeks, 1 h after last administration, mean ± SD. From the text: Effects of limonoid compound, acarbose or combination thereof on blood glucose and leptin in mouse type II diabetes model
In the present example, db/db mice (line name BKS.Cg-Dock7^m+/+Lepr^db/Nju) were used to perform hypoglycemic efficacy evaluation test of animals (blood glucose level and leptin). The limonoid compound was selected from obacunone, isoobacunoic acid and obacunone glycoside, and acarbose single administration group, obacunone single administration group, isoobacunoic acid single administration group, obacunone glycoside single administered group, and respective combination thereof with acarbose administration groups were set.
Conditions for experimental feeding: as type II diabetes model mice, 6-week-old SPF-grade db/db mice were purchased from the Nanjing Model Biology Institute, and subjected to experimental feeding after 7 days of preliminary feeding. It should be noted that the conditions for raising the mice were as follows: the temperature was 23±1° C., the humidity was 55±10%, the lights were turned on between 7 am and 7 pm (the lights were turned off at other time), and the mice were allowed to freely take in water and feed. […]

On to `C[C@H]1O[C@H](O[C@H]2[C@H](O)[C@@H](O)[C@@H](O[C@H]3[C@H](O)[C@@H](O)C(O)O[C@@H]3CO)O[C@@H]2CO)[C@H](O)[C@@H](O)[C@@H]1N[C@H]1C=C(CO)[C@@H](O)[C@H](O)[C@H]1O` (some centres unmarked) [Acarbose, acarbose], for which the figures for the Blood glucose value in assay [1] and in assay [2] were 20.6 ± 4.5 mmol/L and 16.9 ± 4.0 mmol/L, respectively.

(Values after patent publication US20220296566A1, “COMBINATION PRODUCT CONTAINING LIMONOID COMPOUND AND ALPHA-GLUCOSIDASE INHIBITOR” (ZHEJIANG YANGSHENGTANG INSTITUTE OF NATURAL MEDICATION CO., …, priority 2019, published 2022).)
